Experiments:
[1] = system: APOE*3-Leiden transgenic (E3L) mice; assay: Total plasma cholesterol in E3L mice; type: in vivo, mouse
Description: (§1) We assessed the effect of inhibiting FAAH activity on body weight, body fat, triglyceride levels, cholesterol levels in APOE*3-Leiden transgenic (E3L) mice, an animal model of hyperlipidemia. […] See van Vlijmen et al. (1994), J. Clin Invest., 93:1403-1410. Indeed, upon high fat and cholesterol feeding, these mice develop various stages of atherosclerotic lesions depending on plasma total cholesterol levels and resembling those found in humans. See Groot et al. (1996), Arterioscler. Thromb. Vasc. Biol., 16:926-933; Versch ren et al. (2005), Arterioscler. Thromb. Vasc Biol., 25:161-167; and Lutgens et al. (1999), Circulation; 99(2):276-283). Thus, the E3L mouse is a suitable model for the investigation of the efficacy of anti-atherosclerotic drugs.
(§2) E3L mice were fed a high cholesterol (1% w/w) diet (HC diet) for a period of four weeks. Animals were then matched based on their plasma cholesterol levels, and were divided into five groups, each of which was maintained on an HC diet.
(§3) Blood samples were collected at days 0, 14, and 28 of the treatment period. At the end of the treatment period, animals were sacrificed, and various tissues and organs were analyzed. Unless otherwise indicated, values are mean±standard deviation (SD).

[2] = system: APOE*3-Leiden transgenic (E3L) mice; assay: Total plasma triglyceride levels in E3L mice; type: in vivo, mouse
Description: as §1, §2, §3

[3] = system: APOE*3-Leiden transgenic (E3L) mice; assay: Lipid content of liver (TLC) in E3L mice; type: in vivo, mouse; conditions: end of four-week treatment
Description: as §2
A reduction of Red Oil O staining in liver generally indicates reduced liver lipid content. We therefore quantified levels of lipids in livers from each animal, as described in Havekes et al. (1987), Biochem. J., 247:739-746; Delsing et al. (2005), J. Cardiovasc. Pharmacol., 45:53-60; and Post et al. (2004), ATVB, 24:768-774. Liver tissue homogenates were prepared. Lipids were extracted, dried under nitrogen, dissolved in chloroform, and spotted onto a channeled 20×20 cm silica gel thin layer chromatography (TLC) plate. Lipids were then separated, TLC plates were warmed up to visualize bands, and bands were quantified using an internal standard as reference.

[4] = system: APOE*3-Leiden transgenic (E3L) mice; assay: Plasma alanine aminotransferase (ALAT) activity in E3L mice; type: in vivo, mouse; conditions: day 28
Method: as §2
Levels of plasma alanine aminotransferase (ALAT) were determined on day 28 (table 7). Plasma ALAT is a measure of hepatic stress and increases in plasma ALAT levels are often associated with liver damage. […] Thus, a reduction in plasma ALAT levels is associated with improved liver function.

[5] = system: APOE*3-Leiden transgenic (E3L) mice; assay: Organ and tissue weights in E3L mice on high cholesterol diet
Description: as §1, §2, §3

[6] = E3L mice, HC diet, end of four-week treatment, mean ± SD

Organ and Tissue Weights: Heart [5, 6]: 0.14 ± 0.02 g
Organ and Tissue Weights: Liver [5, 6]: ^#1.77 ± 0.28^ g
Organ and Tissue Weights: Lung [5, 6]: 0.21 ± 0.05 g
liver weight, in words ([5]; relative to its control group): significant increase
Structure (SMILES): CC(C)OC(=O)C(C)(C)Oc1ccc(C(=O)c2ccc(Cl)cc2)cc1 [Fenofibrate, fenofibrate]
Total Plasma Cholesterol ([1]; day 0): 13.6 ± 4.2 mM
Total Plasma Cholesterol ([1]; day 14): *6.5 ± 1.0 mM
Total Plasma Cholesterol ([1]; day 28): *6.2 ± 1.3 mM
Total Plasma Triglyceride Levels ([2]; day 0): 1.6 ± 0.4 mM
Total Plasma Triglyceride Levels ([2]; day 14): ^#*0.7 ± 0.2 mM
Total Plasma Triglyceride Levels ([2]; day 28): ^#*0.7 ± 0.2 mM
Lipid Content of Liver: Cholesterol Esters [3]: 44 ± 6
Lipid Content of Liver: Free Cholesterol [3]: 21 ± 2
Plasma Alanine Amino Transferase Activity [4]: 112.5 ± 10.4 U/L
Organ and Tissue Weights: Fat (gonadal fat) [5, 6]: 0.48 ± 0.14 g
